Measurements: paper PMC7878868, “Mechanisms of feedback inhibition and sequential firing of active sites in plant aspartate transcarbamoylase” (Nature Communications, 2021)
Numbering of substitutions follows the chain as printed. Several values for one entry are separate records, joined by “and”; a condition that tells them apart may be missing. Identical values can stand only once. Like-named read-outs stand apart in the source and are kept apart here.

Assays:
[1] = biological target: T1, atATC-F161A (Arabidopsis thaliana, UniProt P49077, F161A); experiment: Colorimetric ATC activity assay, atATC F161A; assay type: biochemical; conditions: for Activity F161A: 10 mM Asp
T1 construct: 2.6 kDa fusion tag (modified pET28a); made in house; host or cells: E. coli BLR(DE3)-pLysS
T1 sequence (P49077 82-390 F161A): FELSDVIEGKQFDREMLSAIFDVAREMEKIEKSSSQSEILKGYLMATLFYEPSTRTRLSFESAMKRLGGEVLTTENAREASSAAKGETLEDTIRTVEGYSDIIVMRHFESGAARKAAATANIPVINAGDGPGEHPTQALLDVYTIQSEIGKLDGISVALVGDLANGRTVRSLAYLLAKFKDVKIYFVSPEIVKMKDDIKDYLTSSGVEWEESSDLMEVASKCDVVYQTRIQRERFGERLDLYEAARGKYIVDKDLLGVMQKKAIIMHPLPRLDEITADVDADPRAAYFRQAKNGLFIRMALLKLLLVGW
Description: (§1) Activity was assayed by a colorimetric method[64] adapted to a 96-well plate format. […] Reagent B is light sensitive and was stored at 4 °C in the dark. The color reagents were gently mixed and stored at 4 °C in the dark until added to the sample. Reaction tubes were closed, boiled at 95 °C for 15 min, and kept in the dark for 30 min before measuring the absorbance at 450 nm in a Tecan infinite m200 microplate reader (Tecan). […] Data analysis was done with GraphPad. […] Protein concentration in the assay was 0.3 µM (0.01 mg ml^−1) both for WT and F161A.

[2] = biological target: T2, atATC WT (Arabidopsis thaliana, UniProt P49077); experiment: Colorimetric ATC activity assay, atATC WT; assay type: biochemical; conditions: for Activity WT: 10 mM Asp
T2 construct: 2.6 kDa fusion tag (modified pET28a); made in house; host or cells: E. coli BLR(DE3)-pLysS
T2 sequence (P49077 82-390): T1 sequence (P49077 82-390 F161A) with A80F
Description: as §1

[3] = biological target: T1, atATC-F161A; experiment: biochemical; assay type: binding
Description: (§2) Experiments were performed in an Auto-iTC200 calorimeter (MicroCal, Malvern-Panalytical) at 25 °C with a 0.2 ml reaction cell and 30–40 µM protein solution (in protomer units) in the cell. […] All solutions were in GF buffer and degassed and mixed in the cell by stirring at 750 rpm. Data analysis was performed with Origin 7 (OriginLab) using a general three-site cooperative and a non-cooperative binding model, restricted to one or two ligand binding sites when convenient[24],[62],[63]. Non-linear least-squares regression analysis was employed to estimate dissociation constants for the interaction of the different ligands with ATC.

[4] = biological target: T3, atATC (Arabidopsis ATC aa 82–390) WT (Arabidopsis thaliana, UniProt P49077); experiment: Isothermal titration calorimetry (ITC), atATC WT; assay type: binding; conditions: ITC; for Kd: 25 °C
T3 construct: 2.6 kDa fusion tag (modified pET28a); made in house; host or cells: E. coli BLR(DE3)-pLysS
T3 sequence (P49077 82-390): T1 sequence (P49077 82-390 F161A) with A80F
Description: as §2

[5] = biological target: T4, atATC WT:PALA (Arabidopsis thaliana, UniProt P49077); experiment: ITC, atATC WT prebound to PALA (WT:PALA); assay type: binding; conditions: for N, number of binding sites per protein trimer according to the ligand binding model / -TΔS Site 2 / ΔG Site 2 / ΔH Site 2 / -TΔS Site 3 / ΔG Site 3 / ΔH Site 3: ITC, protein prebound to PALA; for Kd: read-out: KD Site 2
T4 construct: 2.6 kDa fusion tag (modified pET28a); made in house; host or cells: E. coli BLR(DE3)-pLysS
T4 sequence (P49077 82-390): T1 sequence (P49077 82-390 F161A) with A80F
Description: as §2

## N[C@@H](CC(=O)O)C(=O)O [Asp, aspartate]
[1]; F161A, Asp variable, 5 mM CP
  K0.5 Asp: 3.20 ± 1.03 mM
[2]; WT, Asp variable, 5 mM CP
  K0.5 Asp: 0.94 mM and 0.94 ± 0.10 mM

## NC(=O)OP(=O)(O)O [CP, carbamoyl phosphate]
[2]; WT, CP as variable ligand, in the presence of UMP
  Hill-coefficient h of CP initial-rate plot: 2.2
[3]; ITC, F161A
  N, number of binding sites per protein trimer according to the ligand binding model: 3
[3]; ITC, F161A versus WT
  fold higher affinity of F161A than WT: ~ 100 fold
[3]; ITC, F161A, site 1
  -TΔS Site 1: -2.4 kcal/mol
  ΔG Site 1: -8.4 kcal/mol
  ΔH Site 1: -6.0 kcal/mol
[3]; ITC, F161A, site 2
  -TΔS Site 2: -2.4 kcal/mol
  ΔG Site 2: -8.4 kcal/mol
  ΔH Site 2: -6.0 kcal/mol
[3]; ITC, F161A, site 3
  -TΔS Site 3: -2.4 kcal/mol
  ΔG Site 3: -8.4 kcal/mol
  ΔH Site 3: -6.0 kcal/mol
[3]; KD Site 1, ITC, F161A, site 1
  Kd: 0.73 µM
[3]; KD Site 2, ITC, F161A, site 2
  Kd: 0.73 µM
[3]; KD Site 3, ITC, F161A, site 3
  Kd: 0.73 µM
[3]; KD, ITC, F161A
  Kd: 0.7 µM
[4]
  N, number of binding sites per protein trimer according to the ligand binding model: 3
  -TΔS Site 1: -2.6 kcal/mol
  ΔG Site 1: -5.6 kcal/mol
  ΔH Site 1: -3.0 kcal/mol
  -TΔS Site 2: -2.6 kcal/mol
  ΔG Site 2: -5.6 kcal/mol
  ΔH Site 2: -3.0 kcal/mol
[4]; site 1, read-out: KD Site 1
  Kd: 80 µM
[4]; site 2, read-out: KD Site 2
  Kd: 80 µM
[4]; site 3, read-out: KD Site 3
  Kd: 80 µM
[4]; site 3
  -TΔS Site 3: -2.6 kcal/mol
  ΔG Site 3: -5.6 kcal/mol
[5]
  N, number of binding sites per protein trimer according to the ligand binding model: 2
  -TΔS Site 2: 0.4 kcal/mol
  ΔG Site 2: -5.3 kcal/mol
  ΔH Site 2: -5.7 kcal/mol
  -TΔS Site 3: 0.4 kcal/mol
  ΔG Site 3: -5.3 kcal/mol
  ΔH Site 3: -5.7 kcal/mol
  Kd: 140 µM

## O=c1ccn([C@@H]2O[C@H](COP(=O)(O)O)[C@@H](O)[C@H]2O)c(=O)[nH]1 [UMP, uridine 5-monophosphate]
[1]; 0.2 mM UMP, [CP] 0.31 mM
  Activity F161A: 31.06 nmol / min μg and 26.77 nmol / min μg and 21.39 nmol / min μg
[1]; 0.2 mM UMP, [CP] 0.63 mM
  Activity F161A: 62.38 nmol / min μg and 46.00 nmol / min μg and 48.44 nmol / min μg
[1]; 0.2 mM UMP, [CP] 1.25 mM
  Activity F161A: 61.36 nmol / min μg and 58.95 nmol / min μg and 63.80 nmol / min μg
[1]; 0.2 mM UMP, [CP] 2.50 mM
  Activity F161A: 64.72 nmol / min μg and 56.89 nmol / min μg and 56.14 nmol / min μg
[1]; 0.4 mM UMP, [CP] 0.31 mM
  Activity F161A: 27.07 nmol / min μg and 21.22 nmol / min μg and 30.75 nmol / min μg
[1]; 0.4 mM UMP, [CP] 0.63 mM
  Activity F161A: 50.59 nmol / min μg and 53.67 nmol / min μg and 49.88 nmol / min μg
[1]; 0.4 mM UMP, [CP] 1.25 mM
  Activity F161A: 68.18 nmol / min μg and 58.61 nmol / min μg and 62.41 nmol / min μg
[1]; 0.4 mM UMP, [CP] 2.50 mM
  Activity F161A: 55.88 nmol / min μg and 59.00 nmol / min μg and 63.38 nmol / min μg
[1]; F161A
  inhibition of enzyme activity by UMP: not inhibited
[2]; 0.1 mM UMP, [CP] 0.31 mM
  Activity WT: 4.11 nmol / min μg and 7.63 nmol / min μg and 5.39 nmol / min μg
[2]; 0.1 mM UMP, [CP] 1.25 mM
  Activity WT: 41.20 nmol / min μg and 48.03 nmol / min μg and 40.64 nmol / min μg
[2]; 0.1 mM UMP, [CP] 2.50 mM
  Activity WT: 66.92 nmol / min μg and 70.05 nmol / min μg and 71.44 nmol / min μg
[2]; 0.1 mM UMP, [CP] 3.00 mM
  Activity WT: 72.17 nmol / min μg and 74.13 nmol / min μg and 71.50 nmol / min μg
[2]; 0.1 mM UMP, [CP] 4.00 mM
  Activity WT: 77.07 nmol / min μg and 76.02 nmol / min μg and 75.78 nmol / min μg
[2]; 0.1 mM UMP, [CP] 5.00 mM
  Activity WT: 76.47 nmol / min μg and 78.06 nmol / min μg and 76.19 nmol / min μg
[2]; 0.4 mM UMP, [CP] 1.25 mM
  Activity WT: 9.87 nmol / min μg and 11.15 nmol / min μg and 12.99 nmol / min μg
[2]; 0.4 mM UMP, [CP] 2.50 mM
  Activity WT: 28.61 nmol / min μg and 31.67 nmol / min μg and 35.52 nmol / min μg
[2]; 0.4 mM UMP, [CP] 3.00 mM
  Activity WT: 41.63 nmol / min μg and 37.33 nmol / min μg and 40.36 nmol / min μg
[2]; 0.4 mM UMP, [CP] 4.00 mM
  Activity WT: 48.76 nmol / min μg and 50.91 nmol / min μg and 53.68 nmol / min μg
[2]; 0.4 mM UMP, [CP] 5.00 mM
  Activity WT: 58.15 nmol / min μg and 59.40 nmol / min μg and 57.60 nmol / min μg
[3]; F161A, 70 µM UMP at most, 30-40 µM protein
  binding detected by ITC: failed to detect the binding
[4]
  N, number of binding sites per protein trimer according to the ligand binding model: 3
  fold higher affinity for UMP than for CP: ~400 fold
  fold higher affinity for UMP than for the transition-state analog (PALA): 3 fold
  -TΔS Site 1: -6.3 kcal/mol
  ΔG Site 1: -9.1 kcal/mol
  ΔH Site 1: -2.8 kcal/mol
  -TΔS Site 2: -8.9 kcal/mol
  ΔG Site 2: -7.7 kcal/mol
  ΔH Site 2: 1.2 kcal/mol
[4]; site 1, read-out: KD Site 1
  Kd: 0.21 µM and 0.2 µM
[4]; site 2, read-out: KD Site 2
  Kd: 2.3 µM
[4]; site 3, read-out: KD Site 3
  Kd: 1.6 µM
[4]; negative cooperativity
  fold reduction of the affinity of the other subunits after binding to the first site: 10 fold
[4]; site 3
  -TΔS Site 3: -7.4 kcal/mol
  ΔG Site 3: -7.9 kcal/mol
  ΔH Site 3: -0.5 kcal/mol
[5]
  N, number of binding sites per protein trimer according to the ligand binding model: 2
  -TΔS Site 2: -8.5 kcal/mol
  ΔG Site 2: -8.1 kcal/mol
  ΔH Site 2: 0.4 kcal/mol
  -TΔS Site 3: -8.5 kcal/mol
  ΔG Site 3: -8.1 kcal/mol
  ΔH Site 3: 0.4 kcal/mol
  Kd: 1.2 µM
